# Measured values: article PMC9011347, “Small-Molecule Inhibitors Targeting Lipolysis in Human Adipocytes” (Journal of the American Chemical Society, 2022)
# Biological target: T1, human ATGL (Homo sapiens, UniProt Q96AD5)
# T1 construct: host or cells: Expi293 cells, crude lysate
# T1 sequence (Q96AD5 1-504): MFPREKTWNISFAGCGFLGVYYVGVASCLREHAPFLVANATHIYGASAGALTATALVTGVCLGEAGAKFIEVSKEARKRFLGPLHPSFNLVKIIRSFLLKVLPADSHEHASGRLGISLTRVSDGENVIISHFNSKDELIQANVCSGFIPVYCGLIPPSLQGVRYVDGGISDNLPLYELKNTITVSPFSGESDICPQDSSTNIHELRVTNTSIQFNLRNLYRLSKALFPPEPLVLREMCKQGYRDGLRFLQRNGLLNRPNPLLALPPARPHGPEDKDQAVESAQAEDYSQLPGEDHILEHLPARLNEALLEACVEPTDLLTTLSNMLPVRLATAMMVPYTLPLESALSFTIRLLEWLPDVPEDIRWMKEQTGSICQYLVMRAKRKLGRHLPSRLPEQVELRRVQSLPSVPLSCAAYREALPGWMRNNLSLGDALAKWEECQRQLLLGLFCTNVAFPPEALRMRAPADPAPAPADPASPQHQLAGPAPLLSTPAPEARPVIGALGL
# Test: TAG hydrolase assay, lysates of Expi293 cells overexpressing ATGL, purified CGI-58, radiolabeled triolein
# Format: biochemical
# Conditions: for Ki: NG-497 0.5 μM
# From the text: We previously developed Atglistatin (Ai), a selective inhibitor of mouse ATGL,[31],[32] which is ineffective against human ATGL.[17] Ai acts as a competitive inhibitor targeting the minimal active domain of ATGL ranging from aa 1–254.[33] This domain is highly conserved in different mammalian species (∼90% identity, Table 1) and comprises the patatin-like domain, eponymous for all members of the patatin-like phospholipase domain-containing (PNPLA) protein family.[34] We first investigated the species selectivity of Ai by performing TAG hydrolase assays[35] with lysates from Expi293 cells expressing ATGL orthologues of different species. The activity of ATGL is strongly stimulated by the co-activator protein comparative gene identification-58 (CGI-58, also known as α/β hydrolase domain containing 5, ABHD5)[36] and can be suppressed by the inhibitory protein G0/G1 switch 2 (G0S2).[37] We therefore determined ATGL activity in the presence and absence of mouse CGI-58, mouse G0S2, and Ai. As shown in Figure 1a–i, all ATGL orthologues were expressed, enzymatically active, stimulated by mouse CGI-58, and inactivated by mouse G0S2. Ai inhibited mouse (Figure 1a), rat (Figure 1b), goat (Figure 1c), dog (Figure 1e), and marmoset ATGL (Figure 1f), but not pig (Figure 1d), rhesus monkey (Figure 1g), or human ATGL (Figure 1h).
# To develop an inhibitor for human ATGL, we screened compounds synthesized in the course of the development of Ai.[31] Screenings were performed in the presence of purified CGI-58 using cell lysates of Expi293 cells overexpressing ATGL as a source of enzymatic activity and radiolabeled triolein as substrate as described above (Figure 1). […] In an iterative optimization process, which encompassed the synthesis and testing of >150 compounds (not shown), we varied the nature of the top aryl ring (Figure 2a). Replacement of the top phenyl group with a pyridine moiety (compound 2) led to a significant improvement in inhibitor efficacy (IC50 = 3 μM), which we interpret as a result from a smaller angle between the 1,3-arrangement of the aryl- and the ester-substituents due to the shorter C–N bond length within the pyridine group. […] The introduction of a methoxy residue at this position finally led to compound NG-497 showing an IC50 value of 1 μM.
# Experimental details, materials, and methods
# Expression of recombinant ATGL constructs and preparation of cell lysates. Expi293 cells were cultivated in Expi293 Expression Medium (GIBCO, Thermo Fisher Scientific, Waltham, USA) at standard conditions (37°C, 5% CO2, 95% humidified atmosphere, 125 rpm). DNA constructs containing ATGL from different species and chimeric ATGL variants in pcDNA3.1(+)myc-His C Vector were obtained from BioCat GmbH (Heidelberg, Germany). Cells were transfected with ExpiFectamine293 Transfection Kit (GIBCO) in Opti-Mem reduced serum medium (GIBCO) according to the manufacturer’s instructions. After 48 h, cells were harvested by centrifugation and washed three times with PBS. Cells were disrupted in buffer A (0.25 M sucrose, 1 mM EDTA, 1 mM dithiothreitol, 20µg/ml leupeptin, 2 µg/ml antipain, 1 µg/ml pepstatin, pH 7.0) by sonication (Virsonic 475, Virtis, Gardiner, USA). Nuclei and debris were removed by centrifugation at 1,000 g and 4°C for 10 min. Protein concentrations were determined using Bio-Rad protein assay (Bio-Rad 785, Bio-Rad Laboratories, Munich, Germany) using BSA as standard.
# Expression and purification of mouse CGI-58. CGI-58 was expressed and purified as described 1. In brief, the coding sequence of mouse Cgi-58 was cloned into pHis-Sumo and co-transformed with the plasmid pTf16 expressing the chaperone Tig into E. coli BL21(DE3). Cells were cultured overnight at 37°C and 180 rpm in the presence of 40 µg/ml kanamycin and 34 µg/ml chloramphenicol. Thereafter, cells were transferred into fresh LB medium, grown until OD600 of 0.6, and expression was induced […]
# by the addition of 0.5 mM IPTG. […]
compound,measurement,setting,value
CCOc1ccc(-c2cc(OC)cc(C(=O)OC(C)C)n2)cc1 [NG-497],inhibition of ATGL orthologue,"NG-497 50 μM, human ATGL",inactivates
same,inactivation of TAG hydrolase activity of ATGL (PNPLA2),NG-497 100 μM,inactivated
same,mechanism of inhibition (Lineweaver–Burk analysis),"increase of apparent Km, Vmax not affected",reversible and competitive inhibition
same,IC50,"inhibition of TAG hydrolase activity of human ATGL, Expi293 lysates, purified CGI-58, radiolabeled triolein",1 µM
same,Ki,"nonlinear regression (GraphPad Prism), Figure 2c",0.49 ± 0.02 µM
same,Ki,"nonlinear regression, varying substrate concentration",0.5 µM
